{"source": "patent US20150111864A1", "about": "“CRYSTALLINE FORM OF A BETA-LACTAMASE INHIBITOR” (Cubist Pharmaceuticals, Inc., priority 2013, published 2015)", "type_in_all_cases": "physicochemical", "key": {"[1]": {"assay": "Static stability / storage of solid forms, checked by XRPD", "experimental": "The samples were analysed by XRPD and, where appropriate, by DSC, TGA, VT-XRPD and ^1H NMR. Static stability at 25° C./96% RH and 40° C./75% RH was also investigated.\nThis material was analysed by XRPD TGA, GVS, and mDSC. Static stability experiments were carried out under ambient conditions and also at 25° C./96% RH and 40° C./75% RH. Finally this material was used as input material for the polymorphism screen (see Table 6)."}, "[2]": {"assay": "Gravimetric Vapour Sorption (GVS)", "experimental": "Sorption isotherms were obtained using a SMS DVS Intrinsic moisture sorption analyser, controlled by DVS Intrinsic Control software v1.0.1.2 (or v 1.0.1.3). The sample temperature was maintained at 25° C. by the instrument controls. The humidity was controlled by mixing streams of dry and wet nitrogen, with a total flow rate of 200 ml/min The relative humidity was measured by a calibrated Rotronic probe (dynamic range of 1.0-100% RH), located near the sample. The weight change, (mass relaxation) of the sample as a function of % RH was constantly monitored by the microbalance (accuracy±0.005 mg). Typically 5-20 mg of sample was placed in a tared mesh stainless steel basket under ambient conditions. The sample was loaded and unloaded at 40% RH and 25° C. (typical room conditions). A moisture sorption isotherm was performed as outlined below (2 scans giving 1 complete cycle or 4 scans giving 2 complete cycles). The standard isotherm was performed at 25° C. at 10% RH intervals over a 0-90% RH range. Data analysis was undertaken in Microsoft Excel using DVS Analysis Suite v6.2 (or 6.1 or 6.0). Table 2 details the method parameters for SMS DVS intrinsic experiments.\nThe sample was recovered after completion of the isotherm and re-analysed by XRPD."}, "[3]": {"assay": "Drying of solid forms, form checked by XRPD", "settings": "for Filtration and air drying for 30 min: air drying 30 min"}, "Aqueous solubility": {"assay": "Aqueous solubility"}, "XRPD after ball milling": {"assay": "XRPD after ball milling"}, "[4]": {"assay": "Static stability / storage of solid forms, checked by XRPD", "remark": "listed apart in the source"}}, "note": "Entries after “also recorded” stand apart in the source; their conditions may differ. Where a name gives a salt, the structure may show the parent alone."}
{"molecule": "NCCCc1nnc([C@@H]2CC[C@@H]3CN2C(=O)N3OS(=O)(=O)O)o1", "note": "[Amorphous Solid, (2S,5R)-2-(5-(3-aminopropyl)-1,3,4-oxadiazol-2-yl)-7-oxo-1,6-diazabicyclo[3.2.1]octan-6-yl hydrogen sulfate]", "values": [{"measurement": "Static Stability - 25° C./96% RH: time to conversion to Form 5", "setting": "[1]; 25° C./96% RH", "value": "Conversion to Form 5 within 15 minutes"}, {"measurement": "Static Stability - 40° C./75% RH: time to conversion to Form 5", "setting": "[1]; 40° C./75% RH", "value": "Conversion to Form 5 within 15 minutes"}, {"measurement": "Static Stability - ambient", "setting": "[1]; ambient conditions, XRPD", "value": "Form 5 peaks observed after 36 days (although"}, {"measurement": "GVS (water uptake, in words)", "setting": "[2]; 25° C., resulting solid was Form 5 by XRPD", "value": "Rapid uptake of water from 40-60%"}]}
{"molecule": "NCCCc1nnc([C@@H]2CC[C@@H]3CN2C(=O)N3OS(=O)(=O)O)o1", "note": "[Form 7, (2S,5R)-2-(5-(3-aminopropyl)-1,3,4-oxadiazol-2-yl)-7-oxo-1,6-diazabicyclo[3.2.1]octan-6-yl hydrogen sulfate]", "values": [{"measurement": "Storage at 25° C./96% RH for 24 h", "setting": "[1]; 25° C./96% RH", "value": "Conversion to Form 5"}, {"measurement": "Storage at 40° C./75% RH for 24 h", "setting": "[1]; 40° C./75% RH", "value": "Conversion to Form 5"}, {"measurement": "Storage at ambient conditions for 24 h", "setting": "[1]", "value": "No change in form"}, {"measurement": "Filtration and air drying for 30 min", "setting": "[3]", "value": "No change in form"}]}
{"molecule": "NCCCc1nnc([C@@H]2CC[C@@H]3CN2C(=O)N3OS(=O)(=O)O)o1", "note": "[Form 6, (2S,5R)-2-(5-(3-aminopropyl)-1,3,4-oxadiazol-2-yl)-7-oxo-1,6-diazabicyclo[3.2.1]octan-6-yl hydrogen sulfate]", "values": [{"measurement": "Storage at 25° C./96% RH for 24 h", "setting": "[1]; 25° C./96% RH", "value": "Conversion to Form 5"}, {"measurement": "Storage at 40° C./75% RH for 24 h", "setting": "[1]; 40° C./75% RH", "value": "Conversion to Form 5"}, {"measurement": "Filtration and air drying for 30 min", "setting": "[3]", "value": "No change in form"}]}
{"molecule": "NCCCc1nnc([C@@H]2CC[C@@H]3CN2C(=O)N3OS(=O)(=O)O)o1", "note": "[Form 9, (2S,5R)-2-(5-(3-aminopropyl)-1,3,4-oxadiazol-2-yl)-7-oxo-1,6-diazabicyclo[3.2.1]octan-6-yl hydrogen sulfate]", "values": [{"measurement": "Storage at 25° C./96% RH for 24 h", "setting": "[1]; 25° C./96% RH", "value": "Conversion to Form 5"}, {"measurement": "Storage at 40° C./75% RH for 24 h", "setting": "[1]; 40° C./75% RH", "value": "Conversion to Form 5"}, {"measurement": "Storage at ambient conditions for 24 h", "setting": "[1]", "value": "No change in form"}, {"measurement": "Drying in at 5 mmHg/25° C. overnight", "setting": "[3]; 5 mmHg, 25° C., overnight", "value": "No change in form"}]}
{"molecule": "NCCCc1nnc([C@@H]2CC[C@@H]3CN2C(=O)N3OS(=O)(=O)O)o1", "note": "[Form 5, (2S,5R)-2-(5-(3-aminopropyl)-1,3,4-oxadiazol-2-yl)-7-oxo-1,6-diazabicyclo[3.2.1]octan-6-yl hydrogen sulfate]", "values": [{"measurement": "Stability relative to the amorphous solid form and other crystalline forms", "setting": "[1]", "value": "more stable than other crystalline forms; also recorded: improved stability"}, {"measurement": "Change of XRPD pattern over time (FIG. 2)", "setting": "[1]; 25° C. and 40% relative humidity, t=0 and t=2 days", "value": "little to no change"}, {"measurement": "Storage at 25° C./96% RH for 1 week", "setting": "[1]; 25° C./96% RH, 1 week", "value": "No change in form or crystallinity"}, {"measurement": "Storage at 40° C./75% RH for 1 week", "setting": "[1]; 40° C./75% RH, 1 week", "value": "No change in form or crystallinity"}, {"measurement": "Relative stability of crystalline forms at ambient conditions", "setting": "[1]; ambient conditions (25° C. and 40% RH)", "value": "most stable crystalline form"}, {"measurement": "XRPD post GVS", "setting": "[2]; after GVS isotherm", "value": "Form 5. No change in crystallinity"}, {"measurement": "GVS Mass change", "setting": "[2]; from 0-90% RH, 25° C.", "value": "Mass change of 9.73% from 0-90% RH"}, {"measurement": "Aqueous solubility (24 hrs at 25°): solid form of residue", "setting": "Aqueous solubility", "value": "Residue was Form 5"}, {"measurement": "Aqueous solubility (24 hrs at 25°)", "setting": "Aqueous solubility; pH 4.85", "value": "13.1 mg/ml (pH 4.85)."}, {"measurement": "XRPD after ball milling (20 min)", "setting": "XRPD after ball milling", "value": "No change in form but loss"}, {"measurement": "Storage in vacuum oven at 25° C.", "setting": "[4]; 25° C., after 5 days", "value": "No change in form or crystallinity"}, {"measurement": "Storage in vacuum oven at 50° C.", "setting": "[4]; 50° C., after 24 h", "value": "Sample almost completely amorphous"}]}
